Measured values reported in the OligoGym collection.
HELM strings list units from the 5' end as sugar, base in round brackets, then linkage (d deoxyribose, r ribose, m 2'-O-methyl, p phosphodiester). Strings are as the collection lists them, not checked against the first reports. ss, as = sense and antisense strand; [lna] = locked nucleic acid (LNA); [una] = unlocked nucleic acid; [s4r] = 4'-thioribose; [fl2r] = 2'-fluoro

Settings: siRNA
Also: test system not given here.

Substance	target mRNA knockdown [%]
RNA1{r(G)p.r(A)p.r(A)p.m(U)p.r(A)p.r(A)p.r(C)p.r(C)p.r(U)p.r(G)p.r(A)p.r(A)p.r(C)p.r(G)p.r(U)p.m(C)p.r(A)p.r(C)p.r(C)p.r(T)p.r(T)}|RNA2{r(G)p.r(G)p.r(U)p.r(G)p.r(A)p.r(C)p.r(G)p.r(U)p.r(U)p.m(C)p.r(A)p.r(G)p.r(G)p.r(U)p.r(U)p.r(A)p.r(U)p.r(U)p.r(C)p.r(T)p.r(T)}$$$RNA1{StrandType:ss}|RNA2{StrandType:as}$	71
RNA1{m(C)p.r(G)p.m(C)p.r(C)p.m(C)p.r(C)p.m(C)p.r(C)p.m(U)p.r(C)p.m(A)p.r(A)p.m(G)p.r(C)p.m(U)p.r(A)p.m(C)p.r(C)p.m(G)p.r(T)p.r(T)}|RNA2{r(C)p.r(G)p.r(G)p.r(U)p.r(A)p.r(G)p.r(C)p.r(U)p.r(U)p.r(G)p.r(A)p.r(G)p.r(G)p.r(G)p.r(G)p.r(G)p.r(G)p.r(C)p.r(G)p.r(T)p.r(T)}$$$RNA1{StrandType:ss}|RNA2{StrandType:as}$	44
RNA1{r(C)p.r(G)p.r(U)p.r(A)p.r(C)p.r(G)p.r(C)p.r(G)p.r(G)p.r(A)p.r(A)p.r(U)p.r(A)p.r(C)p.r(U)p.r(U)p.r(C)p.r(G)p.r(A)p.r(T)p.r(T)}|RNA2{r(U)p.r(C)p.r(G)p.r(A)p.r(A)p.r(G)p.[s4r](U)p.[s4r](A)p.[s4r](U)p.[s4r](U)p.[s4r](C)p.[s4r](C)p.[s4r](G)p.r(C)p.r(G)p.r(U)p.r(A)p.r(C)p.r(G)p.r(T)p.r(T)}$$$RNA1{StrandType:ss}|RNA2{StrandType:as}$	36.5
RNA1{[fl2r](A)p.r(G)p.[fl2r](G)p.r(A)p.[fl2r](G)p.r(A)p.[fl2r](C)p.r(C)p.[fl2r](G)p.r(U)p.[fl2r](G)p.r(A)p.[fl2r](C)p.r(A)p.[fl2r](U)p.r(U)p.[fl2r](U)p.r(C)p.[fl2r](G)p.r(T)p.r(T)}|RNA2{r(C)p.[fl2r](G)p.r(A)p.r(A)p.r(A)p.r(U)p.[fl2r](G)p.r(U)p.r(C)p.r(A)p.r(C)p.[fl2r](G)p.[fl2r](G)p.r(U)p.r(C)p.r(U)p.r(C)p.r(C)p.r(U)p.r(T)p.r(T)}$$$RNA1{StrandType:ss}|RNA2{StrandType:as}$	33
RNA1{m(G)p.r(A)p.m(A)p.r(U)p.m(A)p.r(A)p.m(C)p.r(C)p.m(U)p.r(G)p.m(A)p.r(A)p.m(C)p.r(G)p.m(U)p.r(C)p.m(A)p.r(C)p.m(C)p.r(T)p.r(T)}|RNA2{r(G)p.r(G)p.r(U)p.r(G)p.m(A)p.r(C)p.r(G)p.r(U)p.r(U)p.r(C)p.m(A)p.r(G)p.r(G)p.r(U)p.r(U)p.m(A)p.r(U)p.r(U)p.r(C)p.r(T)p.r(T)}$$$RNA1{StrandType:ss}|RNA2{StrandType:as}$	21
RNA1{r(G)p.r(G)p.r(A)p.r(C)p.r(A)p.r(U)p.r(U)p.r(C)p.r(A)p.r(G)p.r(A)p.r(A)p.r(C)p.r(A)p.r(A)p.r(G)p.r(A)p.r(A)p.r(A)p.[una](U)p.[una](U)}|RNA2{r(U)p.r(U)p.r(U)p.r(C)p.r(U)p.r(U)p.[una](G)p.r(U)p.r(U)p.r(C)p.r(U)p.r(G)p.r(A)p.r(A)p.r(U)p.r(G)p.r(U)p.r(C)p.r(C)p.[una](U)p.[una](U)}$$$RNA1{StrandType:ss}|RNA2{StrandType:as}$	78
RNA1{m(U)p.r(G)p.r(A)p.r(A)p.r(C)p.r(G)p.r(U)p.m(C)p.r(A)p.r(C)p.r(C)p.r(G)p.r(A)p.r(G)p.r(G)p.r(A)p.r(G)p.r(A)p.r(A)p.r(T)p.r(T)}|RNA2{r(U)p.r(U)p.r(C)p.r(U)p.r(C)p.r(C)p.r(U)p.r(C)p.r(G)p.r(G)p.m(U)p.r(G)p.r(A)p.r(C)p.r(G)p.r(U)p.r(U)p.m(C)p.r(A)p.r(T)p.r(T)}$$$RNA1{StrandType:ss}|RNA2{StrandType:as}$	82
RNA1{m(G)p.r(U)p.m(C)p.r(U)p.m(A)p.r(U)p.m(G)p.r(C)p.m(C)p.r(A)p.m(A)p.r(G)p.m(A)p.r(A)p.m(G)p.r(G)p.m(G)p.r(A)p.m(G)p.r(T)p.r(T)}|RNA2{r(C)p.r(U)p.r(C)p.r(C)p.r(C)p.r(U)p.r(U)p.r(C)p.r(U)p.r(U)p.r(G)p.r(G)p.r(C)p.r(A)p.r(U)p.r(A)p.r(G)p.r(A)p.r(C)p.r(T)p.r(T)}$$$RNA1{StrandType:ss}|RNA2{StrandType:as}$	24
RNA1{[s4r](C)p.r(G)p.[s4r](U)p.r(A)p.[s4r](C)p.r(G)p.[s4r](C)p.r(G)p.r(G)p.r(A)p.r(A)p.[s4r](U)p.r(A)p.[s4r](C)p.[s4r](U)p.[s4r](U)p.[s4r](C)p.r(G)p.r(A)p.r(T)p.r(T)}|RNA2{r(U)p.r(C)p.r(G)p.r(A)p.r(A)p.r(G)p.r(U)p.r(A)p.r(U)p.r(U)p.r(C)p.r(C)p.r(G)p.r(C)p.r(G)p.r(U)p.r(A)p.r(C)p.r(G)p.r(T)p.r(T)}$$$RNA1{StrandType:ss}|RNA2{StrandType:as}$	92.9
RNA1{r(C)p.r(G)p.r(A)p.r(G)p.m(U)p.r(G)p.r(U)p.r(C)p.m(U)p.r(A)p.r(A)p.r(C)p.r(G)p.r(G)p.r(G)p.r(A)p.r(G)p.r(C)p.r(C)p.r(T)p.r(T)}|RNA2{r(G)p.r(G)p.r(C)p.r(U)p.r(C)p.r(C)p.r(C)p.r(G)p.r(U)p.m(U)p.r(A)p.r(G)p.r(A)p.m(C)p.r(A)p.r(C)p.r(U)p.r(C)p.r(G)p.r(T)p.r(T)}$$$RNA1{StrandType:ss}|RNA2{StrandType:as}$	65
RNA1{r(C)p.r(U)p.r(U)p.r(A)p.r(C)p.r(G)p.r(C)p.r(U)p.r(G)p.r(A)p.r(G)p.r(U)p.r(A)p.r(C)p.r(U)p.r(U)p.r(C)p.r(G)p.r(A)p.r(T)p.r(T)}|RNA2{r(U)p.r(C)p.r(G)p.r(A)p.r(A)p.r(G)p.r(U)p.r(A)p.r(C)p.r(U)p.r(C)p.r(A)p.r(G)p.r(C)p.r(G)p.r(U)p.r(A)p.r(A)p.[lna](G)p.r(T)p.r(T)}$$$RNA1{StrandType:ss}|RNA2{StrandType:as}$	88
RNA1{r(A)p.r(A)p.r(A)p.r(G)p.r(C)p.r(G)p.r(G)p.r(U)p.r(G)p.r(G)p.r(A)p.r(U)p.r(C)p.r(A)p.r(G)p.r(C)p.r(U)p.r(C)p.r(U)p.r(T)p.r(T)}|RNA2{r(A)p.r(G)p.r(A)p.r(G)p.r(C)p.m(U)p.r(G)p.r(A)p.r(U)p.r(C)p.m(C)p.r(A)p.r(C)p.r(C)p.r(G)p.r(C)p.r(U)p.r(U)p.r(U)p.r(T)p.r(T)}$$$RNA1{StrandType:ss}|RNA2{StrandType:as}$	67
RNA1{[fl2r](U)p.r(U)p.[fl2r](C)p.r(U)p.[fl2r](A)p.r(A)p.[fl2r](C)p.r(C)p.[fl2r](G)p.r(G)p.[fl2r](G)p.r(C)p.[fl2r](A)p.r(G)p.[fl2r](C)p.r(U)p.[fl2r](U)p.r(C)p.[fl2r](U)p.r(T)p.r(T)}|RNA2{r(A)p.r(G)p.r(A)p.r(A)p.r(G)p.r(C)p.r(U)p.r(G)p.r(C)p.r(C)p.r(C)p.r(G)p.r(G)p.r(U)p.r(U)p.r(A)p.r(G)p.r(A)p.r(A)p.r(T)p.r(T)}$$$RNA1{StrandType:ss}|RNA2{StrandType:as}$	61
RNA1{r(G)p.r(U)p.r(A)p.r(U)p.r(G)p.r(A)p.r(C)p.r(C)p.r(G)p.r(A)p.r(C)p.r(U)p.r(A)p.r(C)p.r(G)p.r(C)p.r(G)p.r(U)p.r(A)p.r(T)p.r(T)}|RNA2{r(U)p.r(U)p.r(C)p.r(A)p.r(G)p.r(U)p.r(G)p.[una](U)p.r(G)p.r(A)p.r(U)p.r(G)p.r(A)p.r(C)p.r(A)p.r(C)p.r(U)p.r(U)p.r(G)p.r(T)p.r(T)}$$$RNA1{StrandType:ss}|RNA2{StrandType:as}$	90
RNA1{r(G)p.r(A)p.r(A)p.r(G)p.r(G)p.r(G)p.r(G)p.r(A)p.r(A)p.r(A)p.r(U)p.m(C)p.r(U)p.r(G)p.r(U)p.r(G)p.r(G)p.r(U)p.r(U)p.r(T)p.r(T)}|RNA2{r(A)p.r(A)p.r(C)p.m(C)p.r(A)p.r(C)p.r(A)p.r(G)p.r(A)p.r(U)p.r(U)p.r(U)p.r(C)p.r(C)p.r(C)p.r(C)p.r(U)p.r(U)p.r(C)p.r(T)p.r(T)}$$$RNA1{StrandType:ss}|RNA2{StrandType:as}$	65
RNA1{r(G)p.r(G)p.r(G)p.r(A)p.r(G)p.r(G)p.r(A)p.[fl2r](U)p.[fl2r](G)p.r(A)p.[fl2r](C)p.r(A)p.r(A)p.r(A)p.r(G)p.r(A)p.r(A)p.r(G)p.r(C)p.r(T)p.r(T)}|RNA2{r(G)p.r(C)p.r(U)p.r(U)p.r(C)p.r(U)p.r(U)p.[fl2r](U)p.r(G)p.r(U)p.[fl2r](C)p.r(A)p.r(U)p.r(C)p.r(C)p.r(U)p.r(C)p.r(C)p.r(C)p.r(T)p.r(T)}$$$RNA1{StrandType:ss}|RNA2{StrandType:as}$	78
RNA1{r(A)p.r(U)p.r(C)p.r(C)p.m(U)p.r(G)p.m(C)p.r(A)p.r(G)p.r(A)p.r(A)p.m(G)p.r(A)p.r(A)p.r(G)p.r(C)p.r(C)p.r(U)p.r(C)p.r(T)p.r(T)}|RNA2{r(G)p.r(A)p.r(G)p.r(G)p.r(C)p.r(U)p.r(U)p.r(C)p.r(U)p.r(U)p.r(C)p.m(U)p.r(G)p.m(C)p.r(A)p.r(G)p.r(G)p.r(A)p.r(U)p.r(T)p.r(T)}$$$RNA1{StrandType:ss}|RNA2{StrandType:as}$	50
RNA1{r(G)p.r(C)p.r(C)p.r(U)p.r(C)p.r(U)p.r(C)p.r(U)p.r(A)p.r(U)p.r(C)p.r(C)p.r(U)p.r(U)p.r(A)p.r(G)p.r(C)p.r(U)p.r(U)p.r(T)p.r(T)}|RNA2{r(A)p.r(A)p.r(G)p.r(C)p.[fl2r](U)p.r(A)p.r(A)p.r(G)p.r(G)p.r(A)p.[fl2r](U)p.r(A)p.r(G)p.r(A)p.r(G)p.r(A)p.r(G)p.r(G)p.r(C)p.r(T)p.r(T)}$$$RNA1{StrandType:ss}|RNA2{StrandType:as}$	48
RNA1{[fl2r](C)p.r(A)p.r(G)p.[fl2r](C)p.r(A)p.r(A)p.r(A)p.[fl2r](C)p.[fl2r](C)p.r(A)p.[fl2r](C)p.r(G)p.r(A)p.[fl2r](U)p.[fl2r](C)p.r(A)p.r(A)p.[fl2r](U)p.r(A)p.r(T)p.r(T)}|RNA2{[fl2r](U)p.r(A)p.[fl2r](U)p.[fl2r](U)p.r(G)p.r(A)p.[fl2r](U)p.[fl2r](C)p.r(G)p.[fl2r](U)p.r(G)p.r(G)p.[fl2r](U)p.[fl2r](U)p.[fl2r](U)p.r(G)p.[fl2r](C)p.[fl2r](U)p.r(G)p.r(T)p.r(T)}$$$RNA1{StrandType:ss}|RNA2{StrandType:as}$	71
RNA1{r(A)p.r(G)p.r(C)p.r(C)p.[fl2r](C)p.r(A)p.r(G)p.r(A)p.[fl2r](U)p.r(A)p.r(G)p.r(C)p.r(U)p.r(C)p.r(U)p.r(U)p.[fl2r](C)p.r(A)p.r(G)p.r(T)p.r(T)}|RNA2{r(C)p.[fl2r](U)p.r(G)p.r(A)p.r(A)p.r(G)p.r(A)p.r(G)p.r(C)p.[fl2r](U)p.r(A)p.r(U)p.r(C)p.[fl2r](U)p.r(G)p.r(G)p.r(G)p.r(C)p.r(U)p.r(T)p.r(T)}$$$RNA1{StrandType:ss}|RNA2{StrandType:as}$	61
